The values that follow come from ChEMBL document CHEMBL3507680, “University of Dundee, Gates Library screen for HepG2 cell viability”.

SMILES strings stand for the structures.

The nature of the data set: Human HepG2 cell viability assay in 384 well format. To be noted: HepG2 cells, read-out: Inhibition. The class given is toxicity, cell-based. On the set-up: dose 125 nL, time 70.5 hour; concentration not given beside the values.
In the case of `CCC(C(=O)NC(C)(C)C)n1cccc(OC)c1=O` (stereo not given), the cytotoxicity at 70.5 h was -10.3%.

In the case of `c1ccc(C(Cn2cccn2)Nc2cnccn2)cc1` (stereo not given), the cytotoxicity at 70.5 h is -12.5%.

Turning to `Cc1cc(CN2C[C@@H](C)[C@@]3(CCN(CC(=O)N(C)C)C3=O)C2)oc1C`, the cytotoxicity at 70.5 h is -4.41%.

As for `CC(C)Nc1ncnc2c1CCN(C(=O)NCc1cccc(F)c1)CC2`, the cytotoxicity at 70.5 h was -7.17%.

On to `CC(=O)NC1CCCN(C(=O)Nc2cccnc2-n2cccn2)C1` (stereo not given), for which the cytotoxicity at 70.5 h was -6.08%.

Turning to `Cn1c(-c2ccccc2Cl)nc2cc(C(=O)NCCS(C)(=O)=O)cnc21`, the cytotoxicity at 70.5 h is -7.15%.

Consider `CN1CCC(Cc2cc(Nc3ncccn3)ncn2)CC1`, for which the cytotoxicity at 70.5 h is -4.15%.

In the case of `O=C(c1ccc(O)c(Cl)c1)N1CCC(c2n[nH]c(C3CC3)n2)CC1`, the cytotoxicity at 70.5 h was found to be 36.5%.

`Cc1cnn(CC2CCN(CC(O)CN3CCC(C)CC3)CC2)c1` (stereo not given): the cytotoxicity at 70.5 h is -4.29%.

For the compound `COC[C@@H]1CCC[C@]12CN(CCc1ccccc1)CCO2`, the cytotoxicity at 70.5 h is -12.8%.

As for `Cc1nc(-c2ccco2)ccc1C(=O)N1CCc2nnc(N)cc2C1`, the cytotoxicity at 70.5 h is -1.99%.

As to `CN(C)c1cc(CNC(=O)c2cccnc2O)ccn1`, the cytotoxicity at 70.5 h was -12.1%.

Take `CNC(=O)N1CCc2nc(C(=O)NCc3cccc(OC)c3)sc2CC1`: the cytotoxicity at 70.5 h came to 18%.

For the compound `CCOCCC(=O)N1CCCN(Cc2csc(CC)n2)CC1`, the cytotoxicity at 70.5 h is -0.403%.

With `CN(C)CC1(O)CCN(C(=O)c2ccc(-n3cnnc3)cc2Cl)C1` (stereo not given), the cytotoxicity at 70.5 h was 7.55%.

`Cc1cccc(C)c1OCCCN1CCN(CC2CCCO2)CC1` (stereo not given): the cytotoxicity at 70.5 h amounted to 18.9%.

On to `Cc1nc(C2(NCc3ccc(C#N)cc3F)CCCC2)no1`, for which the cytotoxicity at 70.5 h is -18.6%.

Take `CC(C)c1cc(C(=O)NC2CCN(CC(N)=O)CC2)nn1C(C)(C)C`: the cytotoxicity at 70.5 h was -10.3%.

For the compound `O=C(NCc1cncc2c1CCN(Cc1ccc(F)cc1)C2)C1CC1`, the cytotoxicity at 70.5 h was -8.1%.

Regarding `CNC(=O)c1[nH]nc2ccc(I)cc12`, the cytotoxicity at 70.5 h is -3.31%.

As for `COCCc1noc(CNC(C)(CO)C2CCCCC2)n1` (stereo not given), the cytotoxicity at 70.5 h was -0.882%.

For the compound `N#Cc1ccccc1N1CCCN(C(=O)CCn2cccn2)CC1`, the cytotoxicity at 70.5 h is -23%.

`CCc1nnc2n1CCN(CC(O)CN1CCC(C)CC1)C2` (stereo not given): the cytotoxicity at 70.5 h amounted to 2.99%.

In the case of `Cc1cccc(S(=O)(=O)NC(=O)CCc2cscn2)c1`, the cytotoxicity at 70.5 h was found to be 4.67%.

`Cc1cnn(CC(C)NCc2ccc(OCc3nccn3C)cc2)c1` (stereo not given): the cytotoxicity at 70.5 h is -5.96%.

In the case of `CCOc1ncccc1CNC(=O)c1csc(Br)c1`, the cytotoxicity at 70.5 h was -8.48%.

Regarding `CC(C)Cc1nc(CSC2CCCN(c3cnn(C)c3)C2=O)no1` (stereo not given), the cytotoxicity at 70.5 h is -1.14%.

Turning to `O=c1c(-c2ccnc(N3CCC[C@H]3CO)n2)cnc2sccn12`, the cytotoxicity at 70.5 h is -1.75%.

Turning to `Cc1ccc(-c2ncc(C(=O)NS(C)(=O)=O)s2)c(C)c1`, the cytotoxicity at 70.5 h is -1.13%.

On to `CN1CCN(S(=O)(=O)c2cccc(F)c2)c2ccccc21`, for which the cytotoxicity at 70.5 h was 11.9%.

For `CN(C)C(=O)N1CCC2(CCCN(Cc3cnn(C)c3)C2)C1` (stereo not given), the cytotoxicity at 70.5 h stood at 6.69%.

With `CS(=O)(=O)CCCOc1cccc(-n2cccn2)c1`, the cytotoxicity at 70.5 h is 12.8%.

Consider `CC(C)(C)C(=O)N1CCCC1c1nc(O)cc(-c2ccccn2)n1` (stereo not given), for which the cytotoxicity at 70.5 h is -8.73%.

As to `CCOCn1cc(NC(=O)C2CCN(S(C)(=O)=O)CC2)cn1`, the cytotoxicity at 70.5 h is -2.16%.

Regarding `O=C(NCCc1c[nH]cn1)c1ccc(S(=O)(=O)NC2CCOC2)cc1` (stereo not given), the cytotoxicity at 70.5 h is -0.712%.

As to `Cc1c(CN(C)c2cc(C3CCCNC3)ncn2)[nH]c2ccccc12` (stereo not given), the cytotoxicity at 70.5 h was -14.2%.

In the case of `O=C1NC2(CCN(CC3CC3)CC2)CC1c1ccccc1` (stereo not given), the cytotoxicity at 70.5 h was -1.19%.

As to `O=C(c1ccc(Cl)cc1)N1CCC(N2CCOC2=O)CC1`, the cytotoxicity at 70.5 h is -7.62%.

Regarding `COCc1noc(-c2ccc(N3CCCC3c3nccs3)nc2)n1` (stereo not given), the cytotoxicity at 70.5 h was 12%.

For `Cc1nc(CN(C)C2CCN(Cc3sc(C)nc3C)C2)no1` (stereo not given), the cytotoxicity at 70.5 h was -7.02%.

Take `CCC(CC)C(CNC(=O)Nc1ccc(C)cc1)N1CCOCC1` (stereo not given): the cytotoxicity at 70.5 h is -15.7%.

On to `CC(=O)N1N=C(c2ccccc2)OC1C(=O)NCCOc1ccccc1` (stereo not given), for which the cytotoxicity at 70.5 h was -3.08%.

As for `Cc1cccc(CN2CCc3c(nc(N4CCC(C)CC4)[nH]c3=O)C2)n1`, the cytotoxicity at 70.5 h is -9.37%.

With `COCCCN(C)C1CCCN(Cc2noc(C3CC3)n2)C1` (stereo not given), the cytotoxicity at 70.5 h came out at 11.8%.

Take `CS(=O)(=O)N1Cc2nccn2CC(Cn2ncccc2=O)C1` (stereo not given): the cytotoxicity at 70.5 h came out at 3.97%.

On to `COc1cc(NCCNC(=O)c2ccc3[nH]ccc3c2)cc(OC)c1`, for which the cytotoxicity at 70.5 h was -13.8%.

For `CC(=O)N1CC(C(=O)Nc2cccc(OC(F)F)c2)C1`, the cytotoxicity at 70.5 h was -3.71%.

For the compound `CC(C)CC(C)N(C)C(=O)CCn1cccn1` (stereo not given), the cytotoxicity at 70.5 h is -6.33%.

For `COc1cccc(S(=O)(=O)N2CCN(C)[C@@H]3CS(=O)(=O)C[C@@H]32)c1`, the cytotoxicity at 70.5 h was -4.74%.

Take `Cc1nc2n(n1)CC(Nc1ccnc(-c3ccccc3)n1)CC2` (stereo not given): the cytotoxicity at 70.5 h is -6.55%.

As for `O=C(NC[C@H]1OC[C@@H](NC2CCCC2)[C@@H]1O)C1CCCC1`, the cytotoxicity at 70.5 h was 10.4%.

Turning to `CCc1nnc2n1CCN(C(=O)c1cc3ccc(C)cc3[nH]1)C2`, the cytotoxicity at 70.5 h is -12.2%.

With `CNC(=O)C1CCN(C(=O)c2ccn(-c3ccc(F)cc3)n2)CC1`, the cytotoxicity at 70.5 h is -15%.

With `N#Cc1cc(NC(=O)c2ccccc2)ccc1N1CCC(O)CC1`, the cytotoxicity at 70.5 h is 1.64%.

For the compound `COc1ccccc1C(=O)Nc1ccc([C@@H](O)[C@H]2COCC(=O)N2)cc1`, the cytotoxicity at 70.5 h is -4.28%.

Turning to `O=C(NCCCc1cccs1)N1CCCCC1CCO` (stereo not given), the cytotoxicity at 70.5 h was -1.44%.

In the case of `CN(C)C(=O)COC[C@]12COC[C@H]1CN(CC1CCC1)C2`, the cytotoxicity at 70.5 h was -6.61%.

As to `COCC(=O)NC[C@@]1(COc2cccnc2)C[C@@H](O)[C@@H](O)C1`, the cytotoxicity at 70.5 h was found to be 3.07%.

With `CCOc1ccccc1CNC1CCCN(Cc2noc(C)n2)C1` (stereo not given), the cytotoxicity at 70.5 h was -9.86%.

As for `Cc1n[nH]c(C)c1-c1nccnc1CC1CCNC1` (stereo not given), the cytotoxicity at 70.5 h was -2.8%.

`N#CCSCCCN1CCN(C(=O)c2ccccc2F)CC1`: the cytotoxicity at 70.5 h is -12.3%.

Regarding `CC(=O)N1CCC(c2nn(C)c3nccnc23)C1` (stereo not given), the cytotoxicity at 70.5 h is -5.3%.

For the compound `Cc1noc(C)c1CN1CCc2ncc(CN(C)C)n2CC1`, the cytotoxicity at 70.5 h is -8.78%.

With `CCOCC1CC2(CCN(C(=O)c3ccccn3)CC2)CO1` (stereo not given), the cytotoxicity at 70.5 h is -6.81%.

For the compound `COc1c(C)cnc(CN2CCn3c(nnc3C3CC3)C2)c1C`, the cytotoxicity at 70.5 h was -2.97%.

Consider `COCCn1ccc(NC(=O)Nc2ccncc2)n1`, for which the cytotoxicity at 70.5 h is -3.96%.

As for `Cc1ccc(CC(=O)N2CCCC2Cn2nc(C)cc2C)cn1` (stereo not given), the cytotoxicity at 70.5 h was -11.5%.

For `O=C(Nc1ccccc1)C1CN(C(=O)c2cccs2)CC12CCOCC2` (stereo not given), the cytotoxicity at 70.5 h was -0.505%.

Regarding `c1cncc(OCCNC2Cc3ccccc3C2)c1`, the cytotoxicity at 70.5 h was -14.1%.

In the case of `CC(NC(=O)N1CCN(c2ccccc2)CC1)c1nncn1C` (stereo not given), the cytotoxicity at 70.5 h is -15.6%.

As to `CC(NC(=O)c1cn(CCC2CCCCC2)nn1)c1cnn(C)c1` (stereo not given), the cytotoxicity at 70.5 h was found to be 20.4%.

As for `CC(C)c1noc(CCCC(=O)NCC2CCS(=O)(=O)C2)n1` (stereo not given), the cytotoxicity at 70.5 h was found to be 22.3%.

For `O=C(C1CCC1)N1C[C@@H](c2ccsc2)[C@@H]2CN(C3CCCCC3)CC[C@@H]21`, the cytotoxicity at 70.5 h turned out to be 14.8%.

In the case of `O=C(NCCN1CCOCC1)c1nc2ccccc2c(=O)[nH]1`, the cytotoxicity at 70.5 h was -23.1%.

Turning to `CCNC(c1ccc(C(C)C)cc1)c1cccnc1` (stereo not given), the cytotoxicity at 70.5 h is 2.26%.

As for `O=c1c2cccnc2cnn1CC(O)c1cccc(Cl)c1` (stereo not given), the cytotoxicity at 70.5 h came out at 13.3%.

Take `Cc1cc(C)c2[nH]c(C)c(CC(=O)N(C)CCN(C)C)c2c1`: the cytotoxicity at 70.5 h worked out at 1.29%.

For `Cc1nccc([C@@H]2C[C@H]3CN(S(=O)(=O)c4ccccc4)C[C@H]3O2)n1`, the cytotoxicity at 70.5 h is -2.27%.

In the case of `COc1cccc(CC2(C(=O)O)CCN(c3ccc(Cl)cn3)CC2)c1`, the cytotoxicity at 70.5 h was -3.25%.

Regarding `Cc1ccccc1N1CCCN(C(=O)CCc2cccnc2)CC1`, the cytotoxicity at 70.5 h was found to be 0.239%.

Turning to `CCn1nc2c(cc1=O)CN(CC(=O)Nc1nc(C)c(C)s1)CC2`, the cytotoxicity at 70.5 h is -13.9%.

For `Cc1cc(Oc2ccccc2)nc(C2CCCCN2)n1` (stereo not given), the cytotoxicity at 70.5 h came to 13.4%.

Consider `CN(CC1CCCCO1)c1nc2c(cc1C(N)=O)CCC2` (stereo not given), for which the cytotoxicity at 70.5 h was -8.46%.

Take `CC(C(=O)Nc1ccc(N2CCCC2)nc1)n1ccnc1` (stereo not given): the cytotoxicity at 70.5 h was -11.6%.

With `CC(C)c1nc(C2CCCN2c2ncc(C(N)=O)cc2Cl)no1` (stereo not given), the cytotoxicity at 70.5 h is 12.4%.

Regarding `COc1ccc(CCCNCc2c(C)nn(C)c2N(C)C)cc1OC`, the cytotoxicity at 70.5 h amounted to 4.5%.

As for `O=C(NCCCn1ccnn1)C1CCCN(C2CCCC2)C1` (stereo not given), the cytotoxicity at 70.5 h was -1.79%.

In the case of `COCCN1CC(Nc2nc(C3CCCC3)nc3c2cnn3C)CC1=O` (stereo not given), the cytotoxicity at 70.5 h was found to be 18.4%.

Consider `O=C(Nc1cnn(C2CCOCC2)c1)c1ccc2c(c1)OCO2`, for which the cytotoxicity at 70.5 h was -16%.

For the compound `N#CC1CCCN(C(=O)Cn2ncc(N3CCCC3)cc2=O)C1` (stereo not given), the cytotoxicity at 70.5 h is -7.57%.

As for `OCCO[C@H]1C[C@@H](O)C12CCN(Cc1nc(C(F)(F)F)no1)CC2`, the cytotoxicity at 70.5 h is -8.19%.

Regarding `Cc1cc(C(=O)NC2CCc3c(ccc(=O)n3CC3CC3)C2)no1` (stereo not given), the cytotoxicity at 70.5 h was -6.82%.

For `CCc1c(C)nc(C)nc1N1C[C@@H](CN(C)CCN(C)C)[C@@H](CO)C1`, the cytotoxicity at 70.5 h was -9.98%.

Turning to `CC1CNC(=O)CCN1Cc1cc(O)c2cccc(F)c2n1` (stereo not given), the cytotoxicity at 70.5 h is -6.4%.

With `Cn1ccnc1C(=O)N[C@@H]1CN(Cc2ccc(F)cc2)[C@@H]2CCCO[C@@H]21`, the cytotoxicity at 70.5 h was -3.63%.

In the case of `CC(C)N(C)CC(=O)NC1CCc2nccn2C1` (stereo not given), the cytotoxicity at 70.5 h was 17.3%.

As for `O=C(c1cnn2c1OCCC2)N1CCC2(CC1)OCCO2`, the cytotoxicity at 70.5 h was -1.08%.

Take `CCOc1cc(C(=O)N2CCCC(c3nc(C)c(C)s3)C2)ccn1` (stereo not given): the cytotoxicity at 70.5 h came out at 3.48%.

For `CCC(C)C(=O)NCc1cccc(N2CCCCC2=O)c1` (stereo not given), the cytotoxicity at 70.5 h is -4.37%.

On to `COc1ccc(NC(=O)c2cccc(CN3CCCC3C)c2)cc1OC` (stereo not given), for which the cytotoxicity at 70.5 h is -2.34%.
